Assay results taken from patent US8173693B2, “Benzenesulfonamide derivatives and pharmaceutical composition thereof” (Purzer Pharmaceutical Co., Ltd., priority 2010, dated 2012).
Where “and” joins values, the source holds several entries; their conditions need not be identical. Equal entries are not always repeated.

Key:
[1] = test system: Human colorectal adenocarcinoma HT-29 cells; experiment: MTT assay; type: cell-based; conditions: 72 hr
Experimental: (§1) Human Bladder Cancer TSGH cells, Human hepatoblastoma HepG2 cells, Human colorectal adenocarcinoma HT-29 cells, human nasopharyngeal carcinoma KB cells, Human gastric adenocarcinoma AGS cells, Human breast carcinoma MCF-7 cells, lung carcinoma A549 cells, and Human prostate carcinoma PC-3 cells were used in the preliminary cytotoxicity assays of the benzenesulfonamide derivatives of the present invention, and the inhibition activity against the tumor cells was evaluated.
(§2) All cell lines were maintained in RPMI 1640 supplied with 10% fetal bovine serum and maintained in a humidified chamber at 37° C. containing 5% CO2. Then, all cell lines were treated with compounds for 72 hr and subsequently incubated with 0.4 mg/mL of MTT at 37° C. for 2 hr. The medium was removed, and DMSO was added to dissolve MTT precipitate. Cell proliferation was determined by measuring the optical density at 540 nm using a Thermomax microplate reader (Molecular Devices, Sunnyvale, Calif.), and the IC50 values of the benzenesulfonamide derivatives of the present invention were calculated.

[2] = test system: human nasopharyngeal carcinoma KB cells; experiment: MTT assay; type: cell-based; conditions: Homo sapiens, KB; MTT assay, 72 hr
Experimental: as §1, §2

[3] = test system: Human hepatoblastoma HepG2 cells; experiment: MTT assay; type: cell-based; conditions: 72 hr, read-out: IC50 HepaG2
Experimental: as §1, §2

[4] = test system: Human Bladder Cancer TSGH cells; experiment: MTT assay; type: cell-based; conditions: 72 hr
Experimental: as §1, §2

tumor cells = experiment: Preliminary cytotoxicity assays (MTT, SRB), tumor cell panel; type: cell-based; conditions: comparison over Tables 1-4
Experimental: as §1, §2
All cell lines were maintained in RPMI 1640 supplied with 10% fetal bovine serum into 96-well microtiter plates and maintained in a humidified chamber at 37° C. containing 5% CO2. After 24 hr, cell lines in partial wells were fixed in situ with 10% trichloroacetic acid (TCA) to represent a measurement at the time of drug addition (T0). Then, cell lines in other wells were incubated with the benzenesulfonamide derivatives of the present invention for an additional 48 hr, and fixed in situ with 10% TCA to represent a measurement at the time of stopping reaction (Tx). […] Cell proliferation was determined by measuring the optical density at 515 nm using a Thermomax microplate reader (Molecular Devices, Sunnyvale, Calif.). The half-inhibition concention (GI50) of the benzenesulfonamide derivatives of the present invention was obtained from the detected optical density.

[5] = test system: Human colorectal adenocarcinoma HT-29 cells; experiment: SRB assay; type: cell-based; conditions: 48 hr
[6] = test system: Human breast carcinoma MCF-7 cells; experiment: SRB assay; type: cell-based; conditions: MCF7, 48 hr
[7] = test system: lung carcinoma A549 cells; experiment: SRB assay; type: cell-based; conditions: Homo sapiens, 48 hr
[8] = test system: Human gastric adenocarcinoma AGS cells; experiment: SRB assay; type: cell-based; conditions: 48 hr
[9] = test system: Human hepatoblastoma HepG2 cells; experiment: SRB assay; type: cell-based; conditions: 48 hr
[10] = test system: Human colorectal adenocarcinoma HT-29 cells; experiment: SRB assay; type: cell-based; conditions: 48 hr; remark: listed apart in the source
Experimental: as §1
(§3) All cell lines were maintained in RPMI 1640 supplied with 10% fetal bovine serum into 96-well microtiter plates and maintained in a humidified chamber at 37° C. containing 5% CO2. After 24 hr, cell lines in partial wells were fixed in situ with 10% trichloroacetic acid (TCA) to represent a measurement at the time of drug addition (T0). Then, cell lines in other wells were incubated with the benzenesulfonamide derivatives of the present invention for an additional 48 hr, and fixed in situ with 10% TCA to represent a measurement at the time of stopping reaction (Tx). After rinsing the plates with PBS and air-drying, 0.4% sulforhodamine B solution (weight per volume in 1% acetic acid) was added to each well and the plates were incubated for 10 min at room temperature. Unbound sulforhodamine B was removed with 1% acetic acid and the plates were air-dried. Cells bound with sulforhodamine B was subsequently solubilized with 10 mM Tris base (Trizma; Sigma). Cell proliferation was determined by measuring the optical density at 515 nm using a Thermomax microplate reader (Molecular Devices, Sunnyvale, Calif.). The half-inhibition concention (GI50) of the benzenesulfonamide derivatives of the present invention was obtained from the detected optical density.

[11] = test system: Human gastric adenocarcinoma AGS cells; experiment: SRB assay; type: cell-based; conditions: 48 hr; remark: listed apart in the source
Experimental: as §1, §3

[12] = test system: Human hepatoblastoma HepG2 cells; experiment: SRB assay; type: cell-based; conditions: 48 hr; remark: listed apart in the source
Experimental: as §1, §3

[13] = test system: Human prostate carcinoma PC-3 cells; experiment: SRB assay; type: cell-based; conditions: Homo sapiens; for GI50: PC-3, 48 h; for IC50: PC-3, 48 hr
Experimental: as §1, §3

[14] = test system: lung carcinoma A549 cells; experiment: SRB assay; type: cell-based; conditions: Homo sapiens, 48 hr; remark: listed apart in the source
Experimental: as §1, §3

[15] = test system: Human breast carcinoma MCF-7 cells; experiment: SRB assay; type: cell-based; conditions: MCF7, 48 hr; remark: listed apart in the source
Experimental: as §1, §3

[16] = background statement; cited from earlier work
colon 38 cells = conditions: Owa et al., J. Med. Chem. 1999, 42, 3789-3799; read-out: IC50 against colon 38 cells; cited from earlier work
KB cells = conditions: Owa et al., J. Med. Chem. 1999, 42, 3789-3799; read-out: IC50 against KB cells; cited from earlier work
[17] = test system: P388 murine leukemia cells; conditions: Owa et al., J. Med. Chem. 1999, 42, 3789-3799; read-out: IC50 against P388 murine leukemia cells; cited from earlier work
4T1-Luc cells [18] = experiment: In vivo evaluation, short-time treatment, mice implanted with 4T1-Luc cells; conditions: short-time treatment, GM119 25 mg/kg, Taxol 10 mg/kg
Experimental: GM119 (25 mg/kg) was applied to a mouse implanted with 4T1-Luc cells for a short time, and then Taxol (10 mg/kg) was applied thereto to observe the effect of GM119 on the 4T1-Luc cells.
(§4) A suspension of 4T1-Luc cells in matrigel was injected into the breast adipocyte to obtain mice implanted with luciferase tumor cells. […] When the size of the tumor cells was achieved to 200-500 mm^3, the mice were divided into 2 groups, and the number of the mice in each group is ≧5. Then, 0 or 25 mg/kg of GM119 was abdominal-injected into the mice for 5 days, wherein GM119 was dissolved in cremophor, and the volume of injection to each mouse is 50 μl. Then, 0 or 10 mg/kg of Taxol was abdominal-injected into the mice for every 2 days until death of the mice. The weight and the number of the mice were recorded every day to analyze the change on the weight and the survival time of the mice. After the drugs were applied to the mice, the size of the tumor cells in the mice was evaluated with bioluminescence every two days.

4T1-Luc cells [19] = experiment: In vivo evaluation, long-time treatment, mice implanted with 4T1-Luc cells
Experimental: GM119 (25 mg/kg) and Taxol (10 mg/kg) were simultaneously applied to a mouse implanted with 4T1-Luc cells for a long time to observe the effect of GM119 on the 4T1-Luc cells.
as §4, with “Then, 0/0, 0/25, 10/[…],” for “Then, 0”, “or 10/0” for “or 25”, “of Taxol/GM119” for “of GM119”, “mice every two days until death of the mice,” for “mice for 5 days,”, “GM119 and Taxol were” for “GM119 was”, “μl.” for “μl. Then, 0 or 10 mg/kg of Taxol was abdominal-injected into the mice for every 2 days until death of the mice.”

Row | Compound | melting point [°C] | IC50 [5] [µM] | IC50 [6] [µM] | IC50 [7] [µM] | IC50 [8] [µM] | IC50 [9] [µM] | GI50 [10] [µM] | GI50 [11] [µM] | GI50 [12] [µM] | GI50 [13] [µM] | IC50 [13] [µM] | GI50 [14] [µM] | GI50 [15] [µM] | also measured
1 | O=[N+]([O-])c1ccc(/N=N/c2c[nH]c3c(NS(=O)(=O)c4ccc(Cl)cc4)cccc23)cc1 [Compound 7a, 4-Chloro-N-[3-(4-nitrophenylazo)-1H-indol-7-yl]benzenesulfonamide] | 217 to 218 |  |  |  |  |  |  |  |  |  |  |  |  | IC50 [1]: 5.9 µM; IC50 [2]: 4.5 µM; IC50 [3]: 9.1 µM; IC50 [4]: 3.6 µM; inhibitory activity against the tumor cells (in words) (tumor cells): higher than that of the compound 5d
2 | O=S(=O)(Nc1cccc2c(/N=N/c3ccccc3)c[nH]c12)c1ccc(Cl)cc1 [Compound 7c, 4-Chloro-N-(3-phenylazo-1H-indol-7-yl)benzenesulfonamide] | 110 to 111 |  |  |  |  |  |  |  |  |  |  |  |  | IC50 [1]: 13.8 µM; IC50 [2]: 15.3 µM; IC50 [3]: 28.4 µM; IC50 [4]: 14.2 µM; inhibitory activity against the tumor cells (in words) (tumor cells): higher than that of the compound 5d
3 | Cc1ccc(C)c2c1[nH]c1c(N(C)S(=O)(=O)c3cccc(C(F)(F)F)c3)cccc12 [Compound 15j, N-(5,8-Dimethyl-9H-carbazol-1-yl)-N-methyl-3-trifluoromethylbenzenesulfonamide] | 192 to 194 | 10 | > 10 | > 10 | > 10 | > 10 | 5.6 | 7.8 | > 10 | > 10 | > 10 | > 10 | 7.8 | 
4 | COc1ccc(S(=O)(=O)Nc2cccc3c2[nH]c2ccccc23)cc1 [Compound 21a, N-(9H-Carbazol-1-yl)-4-methoxybenzenesulfonamide] | 204 to 206 | 0.07 | 4.4 | 1.7 | 0.07 | 0.08 | 0.03 | 0.01 | 0.04 | 0.2 | > 10 | 0.9 | 0.07 | 
5 | O=S(=O)(Nc1cccc2c1[nH]c1ccccc12)c1cccc(C(F)(F)F)c1 [Compound 21b, N-(9H-Carbazol-1-yl)-3-trifluoromethylbenzenesulfonamide] | 188 to 190 | > 10 | > 10 | > 10 | > 10 | > 10 | > 10 | > 10 | > 10 | > 10 | > 10 | > 10 | > 10 | 
6 | COc1ccc(S(=O)(=O)Nc2cccnc2Nc2ccc(O)cc2)cc1 [Compound E7010] |  |  |  |  |  |  |  |  |  |  |  |  |  | anti-cancer activity in mice [16]: shows great effect
7 | NS(=O)(=O)c1ccc(S(=O)(=O)Nc2cccc3c(Cl)c[nH]c23)cc1 [Compound E7070] |  |  |  |  |  |  |  |  |  |  |  |  |  | IC50 (colon 38 cells): 0.26 µM and 0.3 µM; IC50 (KB cells): 11.4 µM; IC50 [17]: 1.2 µM
8 | CC(=O)O[C@H]1C(=O)[C@@]2(C)[C@H]([C@H](OC(=O)c3ccccc3)[C@]3(O)C[C@H](OC(=O)[C@H](O)[C@@H](NC(=O)c4ccccc4)c4ccccc4)C(C)=C1C3(C)C)[C@]1(OC(C)=O)CO[C@@H]1C[C@@H]2O [Taxol, reference compound] |  |  |  |  |  |  |  |  |  |  |  |  |  | growth of the tumor cells (bioluminescence) (4T1-Luc cells [18]): the growth of the tumor cells can be inhibited; survival of the mice (4T1-Luc cells [19]; long time: Taxol 10 mg/kg and/or GM119 25 mg/kg abdominal-injected every two days until death, FIG. 3): the survival of the mice can be increased; growth of the tumor cells (bioluminescence) (4T1-Luc cells [19]; long-time treatment): the growth of the tumor cells can be inhibited

More lines, main results first:

Row | melting point [°C] | IC50 [5] [µM] | IC50 [6] [µM] | IC50 [7] [µM] | IC50 [8] [µM] | IC50 [9] [µM] | GI50 [10] [µM] | GI50 [11] [µM] | GI50 [12] [µM] | GI50 [13] [µM] | IC50 [13] [µM] | GI50 [14] [µM] | GI50 [15] [µM] | Compound | also measured
9 | 179 to 181 | 3.9 | > 10 | > 10 | > 10 | 1.6 | 0.3 | 7.5 | 0.7 | 7 | > 10 | 8.1 | > 10 | Cc1ccc(C)c2c1[nH]c1c(N(C)S(=O)(=O)c3ccc(Cl)s3)cccc12 [Compound 15k, 5-Chloro-thiophene-2-sulfonic acid (5,8-dimethyl-9H-carbazol-1-yl)-methyl-amide] | 
10 | 151 to 152 | 0.3 | 0.8 | > 10 | 1 | 0.08 | 0.05 | 0.4 | 0.04 | 0.06 | 0.3 | 0.4 | 0.4 | CCN(c1cccc2c1[nH]c1c(C)ccc(C)c12)S(=O)(=O)c1ccc(OC)cc1 [Compound 16c, N-(5,8-Dimethyl-9H-carbazol-1-yl)-N-ethyl-4-methoxybenzenesulfonamide] | 
11 | 60 to 62 | 0.8 | > 10 | 10 | > 10 | 1.9 | 0.3 | 0.6 | 0.8 | 3.5 | 8.6 | 5.9 | 6.1 | CCCN(c1cccc2c1[nH]c1c(C)ccc(C)c12)S(=O)(=O)c1ccc(OC)cc1 [Compound 17c, N-(5,8-Dimethyl-9H-carbazol-1-yl)-N-propyl-4-methoxybenzenesulfonamide] | 
12 | 222 to 224 | 0.7 | > 10 | > 10 | > 10 | 1.6 | 0.2 | 0.5 | 0.5 | 4 | 9.4 | 7.8 | 9.5 | COc1ccc(S(=O)(=O)N(c2cccc3c2[nH]c2c(C)ccc(C)c23)C(C)C)cc1 [Compound 18c, N-(5,8-Dimethyl-9H-carbazol-1-yl)-N-isopropyl-4-methoxybenzenesulfonamide] | 
